Test system: adult patients with NF1-related PN
Experiment: Phase I dose-escalation: DLT, MTD, RP2D and drug-related TEAEs (CTCAE v5.0)
Procedure: This is a multicenter, open-label, single-arm, non-randomized, phase I dose-escalation trial to evaluate the safety, tolerability, pharmacokinetic (PK), and anti-tumor activity of orally administered FCN-159 in adult patients with NF1 (NCT04954001). Phase I commenced with dose escalation in adult patients following a standard 3 + 3 design (Supplementary Table S1) to determine the maximum tolerated dose (MTD) of FCN-159 administered daily under fasting conditions (defined as no food or drink 1 h before and 2 h after each dose) in 28-day cycles. Study drug was dispensed at the study site and patient adherence was monitored by the records of drug dispensation and return. Patients were on treatment until PD, death, patient's voluntary withdrawal from study treatment, or study termination. The study was followed for 2 years after the last patient in. The starting dose was 4 mg, escalating in cohorts of at least three evaluable patients at 6 mg, 8 mg, and 12 mg until the MTD was determined. The starting dose in this study was determined based on available data from a phase 1a, first-in-human study of FCN-159 in patients with advanced NRAS ^mut+ melanoma at the time of study design. […] Dose expansion at a likely RP2D level enrolled approximately six patients. The highest dose level with a dose-limiting toxicity (DLT) incidence rate ≤ 33% (0/3 or 1/6 patients) was to be considered the MTD. If patients experienced grade ≥ 3 and/or unacceptable toxic events that were considered as at least possibly related to the study treatment, the study treatment was discontinued and supportive treatment was given in accordance with local treatment routines. If the toxicity returned to grade ≤ 2 within 28 days after the occurrence, and there was no progression on patients’ conditions or the investigator believed that patients could benefit from the study treatment, the original dose could be maintained or reduced after discussion with medical monitor. After completion of the dose escalation part of the study, PK, efficacy, safety, and tolerability data were analyzed to select the RP2D.
Primary endpoints of the study were the DLT incidence rate, MTD, and RP2D. Secondary endpoints included other safety assessments, imaging tumor response (complete response [CR], PR, stable disease [SD], or progressive disease [PD]), and PK parameters of FCN-159. Adverse events were graded per CTCAE v5.0.
All patients underwent a complete medical history, physical examination, Eastern Cooperative Oncology Group (ECOG) assessment, and laboratory analysis of test results. Drug-related TEAEs, serious adverse events (SAEs), TEAEs of grade ≥ 3 toxicity, and TEAEs leading to drug discontinuation were reviewed on an ongoing basis. Efficacy was assessed by radiologic scans and clinical assessment. Tumor assessments per Response Evaluation in Neurofibromatosis Schwannomatosis criteria were performed by investigators using MRI volumetric analysis every 4 cycles within the first 2 years (± 7 days) and every 6 cycles after 2 years (± 14 days) until PD, death, patient's voluntary withdrawal from study treatment, or study termination. MRI sequences of […], T1- and T2-weighted sequences were chosen and the software of Extended Brilliance Workspace, SIGNA Premier and uExceed were used for MRI volumetric analysis. The same software was used for all tumor assessments at baseline and subsequent assessed timepoints of the same patient. Pain was assessed by an 11-point numerical rating scale (NRS-11).
The sample size for the dose-escalation study was estimated to be 24 based on the 3 + 3 method. Safety was analyzed in patients who received at least one dose of FCN-159 and had at least one safety assessment. DLT was assessed in the DLT analysis set, defined as patients who were enrolled in the dose-escalation study and met the DLT evaluation criteria.

Cn1c(=O)c(F)c(Nc2ccc(I)cc2F)c2c(=O)n(C3CC3)nc(-c3cccc(NS(=O)(=O)C4CC4)c3)c21 [FCN-159]
21.1%: Drug-related TEAE mouth ulceration (all patients, n = 4/19)
8 mg: Recommended phase II dose (RP2D) (daily) | Maximum tolerated dose (MTD) (daily, 28-day cycles, fasting)
31.6%: Drug-related TEAE increased blood alkaline phosphatase (all patients, n = 6/19) | Drug-related TEAE paronychia (all patients, n = 6/19)
7 (36.8) n (%): Drug-related TEAE: Stomatitis (Total (N = 19))
One patient: SAE during treatment that led to drug withdrawal (rhegmatogenous retinal detachment, present at baseline, considered unrelated to the study drug)
5.3%: Blurred vision (all patients, n = 1/19) | Reduced visual acuity (all patients, n = 1/19)
36.8%: Drug-related TEAE stomatitis (all patients, n = 7/19)
3 (15.8) n (%): Drug-related TEAE: Blood creatine phosphokinase increased (Total (N = 19)) | Drug-related TEAE: Breath odor (Total (N = 19)) | Drug-related TEAE: Constipation (Total (N = 19)) | Drug-related TEAE: Rash (Total (N = 19)) | Drug-related TEAE: Total bile acids increased (Total (N = 19)) | Drug-related TEAE: Tricuspid valve incompetence (Total (N = 19)) | Drug-related TEAE: Urinary occult blood positive (Total (N = 19)) | Drug-related TEAE: pH urine decreased (Total (N = 19))
0 n (%): Drug-related TEAE: Vision blurred (12 mg (N = 4)) | Drug-related TEAE: Visual acuity reduced (12 mg (N = 4)) | Drug-related TEAE: pH urine decreased (12 mg (N = 4)) | Drug-related TEAE: pH urine increased (12 mg (N = 4))
four: Patients with grade 3 drug-related paronychia (all dose levels)
Only one: Grade 3 drug-related TEAE in patients receiving doses below the MTD (paronychia, 6 mg dose)
1 (25.0) n (%): Drug-related TEAE: Urticaria (12 mg (N = 4))
47.4%: Patients with grade 3 study-drug-related TEAEs (all dose levels, nine of 19 patients) | Drug-related TEAE folliculitis (all patients, n = 9/19)
9 (47.4) n (%): Drug-related TEAE: Folliculitis (Total (N = 19))
No patients died: Deaths during the study (in vivo)
4 (100) n (%): Subjects with any drug-related TEAE (12 mg (N = 4))
6 (31.6) n (%): Drug-related TEAE: Blood alkaline phosphatase increased (Total (N = 19)) | Drug-related TEAE: Paronychia (Total (N = 19))
10.5%: Patients with eye disorders (all patients, two patients)
4 (21.1) n (%): Drug-related TEAE: Blood fibrinogen increased (Total (N = 19)) | Drug-related TEAE: Blood lactate dehydrogenase increased (Total (N = 19)) | Drug-related TEAE: Blood urea increased (Total (N = 19)) | Drug-related TEAE: Immunoglobulins increased (Total (N = 19)) | Drug-related TEAE: Mitral valve incompetence (Total (N = 19)) | Drug-related TEAE: Mouth ulceration (Total (N = 19)) | Drug-related TEAE: QRS axis abnormal (Total (N = 19))
5 (26.3) n (%): Drug-related TEAE: Alopecia (Total (N = 19)) | Drug-related TEAE: Blood bilirubin increased (Total (N = 19)) | Drug-related TEAE: Drug eruption (Total (N = 19)) | Drug-related TEAE: Protein urine present (Total (N = 19)) | Drug-related TEAE: Specific gravity urine increased (Total (N = 19)) | Drug-related TEAE: Urobilinogen urine increased (Total (N = 19))
19 (100) n (%): Subjects with any drug-related TEAE (Total (N = 19))
63.2%: Drug-related gastrointestinal disorders (all patients, twelve patients)
100%: Patients with DLT (grade 3 folliculitis) (12 mg, 3 of 3 patients) | Patients with FCN-159-related TEAEs (all dose levels, n = 19)
42.1%: Dose reduction (mainly due to grade 3 paronychia and folliculitis)
1 (5.3) n (%): Drug-related TEAE: Abdominal pain (Total (N = 19)) | Drug-related TEAE: Acne (Total (N = 19)) | Drug-related TEAE: Acne pustular (Total (N = 19)) | Drug-related TEAE: Albumin globulin ratio decreased (Total (N = 19)) | Drug-related TEAE: Amylase increased (Total (N = 19)) | Drug-related TEAE: Anemia (Total (N = 19)) | Drug-related TEAE: Aortic dilatation (Total (N = 19)) | Drug-related TEAE: Asthenia (Total (N = 19)) | Drug-related TEAE: Beta globulin decreased (Total (N = 19)) | Drug-related TEAE: Blood pressure increased (Total (N = 19)) | Drug-related TEAE: Capillary disorder (Total (N = 19)) | Drug-related TEAE: Decreased appetite (Total (N = 19)) | Drug-related TEAE: Dermatitis acneiform (Total (N = 19)) | Drug-related TEAE: Diarrhea (Total (N = 19)) | Drug-related TEAE: Ejection fraction decreased (Total (N = 19)) | Drug-related TEAE: Electrocardiogram QT prolonged (Total (N = 19)) | Drug-related TEAE: Functional gastrointestinal disorder (Total (N = 19)) | Drug-related TEAE: Gamma-glutamyltransferase increased (Total (N = 19)) | Drug-related TEAE: Gingival pain (Total (N = 19)) | Drug-related TEAE: Hyperlipidemia (Total (N = 19)) | Drug-related TEAE: Hypertension (Total (N = 19)) | Drug-related TEAE: Hypoalbuminemia (Total (N = 19)) | Drug-related TEAE: Hypophosphatemia (Total (N = 19)) | Drug-related TEAE: Hypoproteinemia (Total (N = 19)) | Drug-related TEAE: Impetigo (Total (N = 19)) | Drug-related TEAE: Left atrial enlargement (Total (N = 19)) | Drug-related TEAE: Lipoprotein abnormal (Total (N = 19)) | Drug-related TEAE: Malaise (Total (N = 19)) | Drug-related TEAE: Muscular weakness (Total (N = 19)) | Drug-related TEAE: Oedema peripheral (Total (N = 19)) | Drug-related TEAE: Pain in extremity (Total (N = 19)) | Drug-related TEAE: Prealbumin decreased (Total (N = 19)) | Drug-related TEAE: Pruritus (Total (N = 19)) | Drug-related TEAE: Sinus arrhythmia (Total (N = 19)) | Drug-related TEAE: Sinus bradycardia (Total (N = 19)) | Drug-related TEAE: Sinusitis (Total (N = 19)) | Drug-related TEAE: Skin exfoliation (Total (N = 19)) | Drug-related TEAE: Supraventricular extrasystoles (Total (N = 19)) | Drug-related TEAE: Urinary sediment present (Total (N = 19)) | Drug-related TEAE: Urinary tract infection (Total (N = 19)) | Drug-related TEAE: Urticaria (Total (N = 19)) | Drug-related TEAE: Vision blurred (Total (N = 19)) | Drug-related TEAE: Visual acuity reduced (Total (N = 19))
five: Patients with grade 3 drug-related folliculitis (all dose levels)
2 (10.5) n (%): Drug-related TEAE: Alanine aminotransferase increased (Total (N = 19)) | Drug-related TEAE: Aspartate aminotransferase increased (Total (N = 19)) | Drug-related TEAE: Beta globulin increased (Total (N = 19)) | Drug-related TEAE: Blood uric acid increased (Total (N = 19)) | Drug-related TEAE: Dyslipidemia (Total (N = 19)) | Drug-related TEAE: Electrocardiogram abnormal (Total (N = 19)) | Drug-related TEAE: Epistaxis (Total (N = 19)) | Drug-related TEAE: Hypocalcemia (Total (N = 19)) | Drug-related TEAE: Menstrual disorder (Total (N = 19)) | Drug-related TEAE: Urine ketone body present (Total (N = 19)) | Drug-related TEAE: pH urine increased (Total (N = 19))

Source: publication PMC10318822, “Phase 1 dose-escalation study to evaluate the safety, tolerability, pharmacokinetics, and anti-tumor activity of FCN-159 in adults with neurofibromatosis type 1-related unresectable plexiform neurofibromas” (BMC Medicine, 2023)
